# Patent US11447495B2, “Substituted benzo[f]imidazo[1,5-a][1,4]diazepines as GABA(a) receptor modulators” (priority 2016, dated 2022)
# Key:
# [1] = Pharmacokinetic analysis in blood, lungs and brain; conditions: mouse, 25 mg/kg oral gavage
# [2] = system: inflammatory cells, eosinophils, CD4+ T cells in BALF; assay: Inflammatory cell numbers in BALF by flow cytometry; assay type: in vivo, ova s/c BALB/c mice; conditions: 100 mg/kg twice daily for 5 days
# Procedure: The change of the number of specific immune cells caused by compounds may be investigated in the bronchoalveolar lavage fluid (BALF) of Ova S/C mice. Therefore, a bronchoalveolar lavage may be carried out followed by the lysis of red blood cells. Incubation of cell-type specific antibodies with BALF may allow the quantification of leukocytes such as eosinophils and CD4^+ T-lymphocytes using flow cytometry.
# Determination of anti-inflammatory properties of compounds were investigated in an allergen induced mouse model of asthma. At the day of analysis, bronchoalveolar lavage (BAL) was performed with 1 mL of Ca2+ and Mg2+ free PBS. Red blood cells (RBCs) were lysed using BD red blood cell lysis buffer (BD Pharmingen, San Jose, Calif.). BALF was split into four different tubes and non-specific binding to Fc receptors was blocked for 5 minutes using 6 μg/mL of 2.4G2 mouse BD Fc Block™ (BD Pharmingen, San Jose, Calif.). BALF cells were stained for 30 minutes at 4° C. in the dark with 100 μL BSA stain buffer (BD Pharmingen, San Jose, Calif.) containing the final concentrations of the following antibodies: anti-mouse CD45 APC (1:1000, 30-F11, Affymetrix eBiosciences, San Diego, Calif.), FITC rat anti-mouse CD4 (1:500, RM4-5, BD Pharmingen, San Jose, Calif.), PE Rat Anti-Mouse Siglec F (1:500, E50-2440, BD Pharmingen, San Jose, Calif.) and mouse CCR3 PE-conjugated antibody (1:40, 83101, R&D systems Inc, Minneapolis, Minn.). Flow cytometric studies were done using the BD FACS Calibur (BD Pharmingen, San Jose, Calif.) and data analyzed subsequently using Cell Quest pro software (BD Pharmingen, San Jose, Calif.). General gating for immune cells were followed. Total inflammatory cell count was obtained by running all samples on high (60 μL/min) for 180 seconds. The gated anti-mouse CD45 positive events in the fourth channel (FL4) were used to calculate the total inflammatory cell count as cells/mL. The frequencies of CCR3+/Siglec F were used for quantification of eosinophils and CD4+ for CD4+ T cell populations in their respective gates were multiplied by the total inflammatory cell count (cells/mL) to obtain the differential cell population. Statistical analysis: Data were analyzed using GraphPad Prism 4 (GraphPad Software, San Diego, Calif.) and expressed as mean±SEM. One-way analysis of variance (ANOVA) with Dunnet post hoc test or two-way ANOVA with Bonferroni post hoc test were performed for statistical difference for multiple groups. FIGS. 7A-7C show effects of compounds on inflammatory cells. Groups of 10 ova s/c BALB/c mice were administered compounds at 100 mg/kg twice daily for 5 days. BALF was harvested from each animal and used for (A) quantification of total inflammatory cells; (B) eosinophils; (C) CD4^+ T cells. Cells were stained with mouse CD45^+ APC antibody, and samples were analyzed with BD FACS Calibur on high flow rate (60 μl/minute) for 180 seconds. The gated positive events in the fourth channel (FL4) were used to calculate the total inflammatory cell count as cells/ml. Quantification of specific leukocyte population (B) eosinophils (C) CD4^+ T cell populations were stained with specific antibodies and detected by flow cytometry. Data represent mean±SEM from 10 mice in each group. *, **, and *** indicate p<0.05, p<0.01, and p<0.001 significance, respectively, compared to vehicle treated ova s/c BALB/c mice.
# [3] = Microsomal stability, mouse liver microsomes; assay type: in vitro ADME; conditions: 10 μM compound
# Procedure: (§1) The metabolic stability of compounds in vivo can be estimated with the stability of compounds in the presence of liver microsomes. Therefore, 4 μL of 1 mM DMSO solution of test compound at a final concentration of 10 μM were preincubated at 37° C. for 5 minutes on a digital heating shaking dry bath (Fischer scientific, Pittsburgh, Pa.) in a mixture containing 282 μL of water, 80 μL of phosphate buffer (0.5 M, pH 7.4) 20 μL of NADPH Regenerating System Solution A (BD Bioscience, San Jose, Calif.) and 4 μL of NADPH Regenerating System Solution B (BD Bioscience, San Jose, Calif.) in a total volume of 391.2 μL. Following preincubation, the reaction was initiated by addition of 8.8 μL of either human liver microsomes (BD Gentest, San Jose, Calif.) or mouse liver microsomes (Life technologies, Rockford, Ill.) at a protein concentration of 0.5 mg/mL. Aliquots of 50 μL were taken at time intervals of 0 (without microsomes), 10, 20, 30, 40, 50 and 60 minutes. Each aliquot was added to 100 μL of cold acetonitrile solution containing 1 μM of verapamil HCL as internal standard. This was followed by sonication for 10 seconds and centrifugation at 10,000 rpm for 5 minutes. 100 μL of the supernatant was transferred into Spin-X HPLC filter tubes (Corning Incorporated, NY) and centrifuged at 13,000 rpm for 5 minutes. The filtrate was diluted 100-fold and subsequently analyzed by LC-MS/MS with Shimadzu LCMS 8040, (Shimadzu Scientific Instruments, Columbia, Md.). The ratio of the peak areas of the internal standard and test compound was calculated for every time point and the natural log of the ratio were plotted against time to determine the linear slope (k). The metabolic rate (k*C0/C), half-life (0.693/k), and […] (V*k) were calculated, where k is the slope, C0 is the initial concentration of test compound, C is the concentration of microsomes, and V is the volume of incubation in μL per microsomal protein in mg. All experiments were repeated two time in triplicates.
# [4] = Microsomal stability, human liver microsomes; assay type: in vitro ADME; conditions: 10 μM compound
# Procedure: as §1
SMILES,bioavailability [1],numbers of CD4+ T cells [2],numbers of eosinophils [2],MLM % remaining after 60 min [3],HLM % remaining after 60 min [4],numbers of inflammatory cells in BALF [2]
"C[C@H]1N=C(c2ccccc2F)c2cc(Br)ccc2-n2cnc(C(=O)O)c21 [GL-II-93, (R)-8-bromo-6-(2-fluorophenyl)-4-methyl-4H-benzo[f]imidazo[1,5-a][1,4]diazepine-3-carboxylic acid]",excellent bioavailability,did reduce the numbers of eosinophils and CD4^+ T cells,did reduce the numbers of eosinophils,,,
"CCOC(=O)c1ncn2c1[C@@H]1CCCN1C(=O)c1cc(O)ccc1-2 [RJ-02-50, ethyl (S)-7-hydroxy-9-oxo-11,12,13,13a-tetrahydro-9H-benzo[e]imidazo[5,1-c]pyrrolo[1,2-a][1,4]diazepine-1-carboxylate]",excellent bioavailability,did reduce the numbers of eosinophils and CD4^+ T cells,did reduce the numbers of eosinophils,91.1 ± 0.1%,91.7 ± 0.2%,
"O=C1c2cc(O)ccc2-n2cnc(-c3cnco3)c2[C@@H]2CCCN12 [RJ-03-30, (S)-7-hydroxy-1-(oxazol-5-yl)-11,12,13,13a-tetrahydro-9H-benzo[e]imidazo[5,1-c]pyrrolo[1,2-a][1,4]diazepin-9-one]",,,,80.0 ± 0.3%,91.8 ± 0.2%,did not modulate the numbers of inflammatory cells
"C#Cc1ccc2c(c1)C(c1ccccc1F)=N[C@H](C)c1c(C(=O)O)ncn1-2 [SH-053-2′F-R-CH3-Acid, (R)-8-ethynyl-6-(2-fluorophenyl)-4-methyl-4H-benzo[f]imidazo[1,5-a][1,4]diazepine-3-carboxylic acid]",excellent bioavailability,but not CD4^+ T cells,reduced the numbers of eosinophils,89.0 ± 0.3%,92.0 ± 0.2%,
